# Read-outs that look alike come from different tables or passages of the source.
# Tests used:
# [1] = system: C. auris clinical strains; test: organism not typed; assay type: cell-based, Candida auris
# [2] = system: McLDM-F5-CPR; test: microbe, parasite or virus in culture; assay type: cell-based, Saccharomyces cerevisiae AD2Δgal; conditions: Saccharomyces cerevisiae, read-out: mean MIC
# [3] = system: McLDM-F1-CPR; test: microbe, parasite or virus in culture; assay type: cell-based, Saccharomyces cerevisiae AD2Δgal; conditions: Saccharomyces cerevisiae, read-out: mean MIC
# [4] = system: Trichosporon isolates; test: CLSI broth microdilution; assay type: cell-based, Trichosporon spp.
# [5] = system: C. auris III.8 and TAC1/MRR1 deletion strains; assay type: cell-based, Candida auris
# [6] = system: C. auris Isolate B and Isolate C; test: microbe, parasite or virus in culture; assay type: cell-based, Candida auris; conditions: for reduction in MIC: Isolate C with ERG11 WT in place of K143R
# [7] = system: Cryptococcal isolates; test: CLSI broth micro dilution; assay type: cell-based, Cryptococcus neoformans, C. gattii
# [8] = system: Parathyridaria percutanea; test: In vitro antifungal susceptibility; assay type: cell-based
# [9] = system: F. verticillioides; test: Etest susceptibility; assay type: cell-based, Fusarium verticillioides
# [10] = system: C. auris; test: CLSI M27-A3 broth microdilution; assay type: cell-based, Candida auris
# [11] = system: nine strains of Candida spp.; test: CLSI M27-A3 broth microdilution; assay type: cell-based; conditions: nine strains
# [12] = system: C. albicans; assay type: cell-based, Candida albicans
# [13] = system: C. parapsilosis; assay type: cell-based, Candida parapsilosis
# [14] = system: C. glabrata; assay type: cell-based, Candida glabrata
# [15] = system: C. tropicalis; assay type: cell-based, Candida tropicalis
# [16] = system: Other species of Candida; assay type: cell-based, Candida spp.
# [17] = system: C. guilliermondii; test: EUCAST E. Def 7.3.2 microdilution; assay type: cell-based, Candida guilliermondii
# [18] = system: Candida catenulata; test: CLSI M44 agar diffusion; assay type: cell-based
# [19] = system: A. niger complex; test: EUCAST E.Def 9.3.2 susceptibility, CPA isolates; assay type: cell-based, Aspergillus niger complex; conditions: n = 7, ECOFFs
# [20] = system: biofilm of filamentous fungi; test: Biofilm XTT-menadione assay; assay type: cell-based
# Experimental: Materials & Methods: Eight strains are studied: Fusarium solani, Fusarium dimerum, Lomentospora prolificans, Scedosporium apiospermum, Aspergillus flavus, Aspergillus fumigatus and two azole resistant A. fumigatus.
# Biofilms were formed after a 90-min adhesion phase followed by the addition of RPMI medium and after a 48 h at 37 °C. Antifungals at different concentrations were added, either after the adhesion phase or after the 48 h of incubation to study their effect on the formation and on the preformed biofilm. After washing, a mixture of XTT-menadione was added to the wells. After 60 min at 37 °C, the OD (optical density) is measured at 450 and 630 nm. An optical microscope observation allows the visualization of elements of the biofilm.
# [21] = system: Exophiala phaeomuriformis; test: MIC, CLSI M27-A3; assay type: cell-based; conditions: read-out: MIC values
# In short: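 Isolate recovered from aviation kerosene by 0.22 μm membrane filtration, grown on potato dextrose agar at 30 °C for seven days and identified by ITS sequencing. Susceptibility to clinical antifungals tested per CLSI M27-A3.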
# [22] = system: Rasamsonia argillacea species complex; test: Antifungal susceptibility testing; assay type: cell-based; conditions: sputum isolate of a CF patient
# [23] = system: azole-resistant A. fumigatus SS clinical strains; test: EUCAST E.DEF 9.3.2; assay type: cell-based; conditions: Aspergillus fumigatus
# [24] = system: Aspergillus spp. isolates; test: Gradient strip susceptibility (Liofilchem); assay type: cell-based; conditions: first isolate per species and patient
# [25] = system: A. fumigatus strains; test: EUCAST E.DEF 9.3.2 broth microdilution; assay type: cell-based, Aspergillus fumigatus; set-up: MIC Range: unit not given beside the values; MIC50 / MIC90: unit not given here
# Experimental: Methods: The research was conducted on 29 A. fumigatus strains. Minimum inhibitory concentrations (MIC) were detected by broth microdilution method (BM) following EUCAST definitive document E.DEF 9.3.2 and E-test in accordance with manufacturer instructions.
# [26] = system: A. fumigatus complex; conditions: share of isolates, n = 59, EUCAST clinical breakpoints
# [27] = system: A. fumigatus clinical isolates; test: Susceptibility of clinical isolates from CF patients; conditions: all 10 clinical isolates
# [28] = III.8 tac1a/tac1b strain vs parental
# [29] = III.8 tac1a/tac1b/mrr1 strain vs parental
# [30] = Meyerozyma guilliermondii, n = 62
smiles,measurement,setting,value
OC(Cn1cncn1)(Cn1cncn1)c1ccc(F)cc1F [fluconazole],Resistance,[1]; CDC tentative breakpoints,100%
same,MIC,[2],128 µg/mL
same,MIC,[3],14.7 µg/mL
same,MIC,[4]; read-out: high MICs,8 µg/mL
same,MIC decrease,[5]; III.8 mrr1 strain vs parental,2 fold
same,MIC decrease,[5]; [28],2 fold
same,MIC,[5]; III.8 tac1a/tac1b/mrr1 strain,128 µg/mL
same,MIC decrease,[5]; [29],4 fold
same,MIC,[5]; parental III.8 isolate,512 µg/mL
same,decrease in MIC,[6],4 fold
same,MIC,"[6]; Candidozyma auris, Isolate B (ERG11 Y132F, TAC1B A583S)",128 µg/mL
same,reduction in MIC,[6],8 fold
same,MIC50,[7],1 µg/mL
same,MIC90,[7],4 µg/mL
same,in vitro susceptibility category,[8],resistance
same,"minimum inhibitory concentration (MIC), in words",[9],high values
same,MIC Range,[10],1 to 32 µg/mL
same,MIC,"[10]; Candidozyma auris, read-out: GM MIC",5.26 µg/mL
same,MIC,"[11]; Candida, read-out: GM MIC",4.66 µg/mL
same,MIC Range,[11],0.5 to 32 µg/mL
same,"I (intermediate) isolates, n (%)",[12],0 (0%)
same,"R (resistant) isolates, n (%)",[12],3 (1.5%)
same,"S (sensitive) isolates, n (%)",[12],199 (98.5%)
same,"I (intermediate) isolates, n (%)",[13],0 (0%)
same,"R (resistant) isolates, n (%)",[13],2 (1.2%)
same,"S (sensitive) isolates, n (%)",[13],171 (98.8%)
same,"I (intermediate) isolates, n (%)",[14],3 (4.2%)
same,"R (resistant) isolates, n (%)",[14],12 (16.9%)
same,"S (sensitive) isolates, n (%)",[14],56 (78.9%)
same,"I (intermediate) isolates, n (%)",[15],0 (0%)
same,"R (resistant) isolates, n (%)",[15],0 (0%)
same,"S (sensitive) isolates, n (%)",[15],57 (100%)
same,"I (intermediate) isolates, n (%)",[16],0 (0%)
same,"R (resistant) isolates, n (%)",[16],0 (0%)
same,"S (sensitive) isolates, n (%)",[16],25 (100%)
same,MIC of non wild-type isolates,[17],64 µg/mL
same,MIC50,[17]; [30],8 µg/mL
same,MIC90,[17]; [30],16 µg/mL
same,MIC,"[17]; Meyerozyma guilliermondii, read-out: MIC of non wild-type isolates",32 µg/mL
same,GM,[17]; n = 62,7.655 µg/mL
same,MIC Range,[17]; n = 62,0.125 to 64 µg/mL
same,resistant isolates,"[18]; […], discs 25 μg fluconazole, 1 μg voriconazole",19%
C[C@@H](c1ncncc1F)[C@](O)(Cn1cncn1)c1ccc(F)cc1F [voriconazole],Non-wild type isolates,[19],29%
same,MIC,"[1]; range, 78 strains from patients with COVID-19",0.06 to 8 µg/mL
same,MIC,[2],4 µg/mL
same,MIC,[3],0.29 µg/mL
same,number of strains with 100% inhibition of biofilm formation,[20],one
same,MIC,[4]; read-out: GM MIC,0.075 µg/mL
same,MIC,[21],0.25 µg/mL
same,MIC decrease,[5]; III.8 mrr1 strain vs parental,2 fold
same,MIC,[5]; III.8 tac1a/tac1b strain,1 µg/mL
same,MIC decrease,[5]; [28],2 fold
same,MIC,[5]; III.8 tac1a/tac1b/mrr1 strain,0.5 µg/mL
same,MIC decrease,[5]; [29],4 fold
same,MIC,[5]; parental III.8 isolate,2 µg/mL
same,reduction in MIC,[6],2 fold
same,minimal inhibitory concentrations (MIC),[22],high minimal inhibitory concentrations
same,MIC,"[23]; strain from pleural fluid of an ICU patient, no mutations in cyp51A",1 µg/mL
same,MIC,"[23]; two strains from a cystic fibrosis patient, TR34/L98H",4 µg/mL
same,isolates with in vitro high MIC values,[24],1.9%
same,"minimum inhibitory concentration (MIC), in words",[9],lower values
same,MIC50,[25]; 28 h,0.5
same,MIC90,[25]; 28 h,1
same,MIC Range,"[25]; 28 h, 29 strains",0.25–4
same,MIC50,[25]; 48 h,1
same,MIC90,[25]; 48 h,2
same,MIC Range,[25]; 48 h,0.25–8
same,"I (intermediate) isolates, n (%)",[12],0 (0%)
same,"R (resistant) isolates, n (%)",[12],S 200 (99%) I 0 (0%) R 2 (1%)
same,"S (sensitive) isolates, n (%)",[12],200 (99%)
same,"I (intermediate) isolates, n (%)",[13],1 (0.6%)
same,"R (resistant) isolates, n (%)",[13],S 170 (98.8%) I 1 (0.6%) R 1 (0.6%)
same,"S (sensitive) isolates, n (%)",[13],170 (98.8%)
same,"I (intermediate) isolates, n (%)",[14],2 (2.8%)
same,"R (resistant) isolates, n (%)",[14],S 62 (87.3%) I 2 (2.8%) R 7 (9.9%)
same,"S (sensitive) isolates, n (%)",[14],62 (87.3%)
same,"I (intermediate) isolates, n (%)",[15],0 (0%)
same,"R (resistant) isolates, n (%)",[15],S 57 (100%) I 0 (0%) R 0 (0%)
same,"S (sensitive) isolates, n (%)",[15],57 (100%)
same,"I (intermediate) isolates, n (%)",[16],0 (0%)
same,"R (resistant) isolates, n (%)",[16],S 26 (100%) I 0 (0%) R 0 (0%)
same,"S (sensitive) isolates, n (%)",[16],26 (100%)
same,resistant isolates,[18],19%
same,Resistance,[26],9%
same,susceptibility,[27],susceptible

# Reference: article PMC8624133, “10th Trends in Medical Mycology Held on 8 to 11 October 2021, Aberdeen, Scotland, Organized by the European Confederation of Medical Mycology (ECMM)” (Journal of Fungi, 2021)
